Measured values reported in US8673919B2, “Dihydropyridin sulfonamides and dihydropyridin sulfamides as MEK inhibitors” (Ardea Biosciences, Inc., priority 2009, dated 2014).

What was measured:
MEK1 = biological target: T1, MEK1 (Homo sapiens, UniProt Q02750); experiment: MEK1 Activation Kinase Assay (HTRF; Cot1 phosphorylation of GST-MEK1); format: biochemical; settings: activation of GST-MEK1 by Cot1, HTRF, 10 min pre-incubation, 20 min reaction at 22° C.
T1 construct: purchased Millipore 14-420
Text: The kinase Cot1 activates MEK1 by phosphorylating its activation loop. The inhibitory activity of compounds of the present invention on this activation of MEK1 was quantified employing the HTRF assay described in the following paragraphs.
N-terminally His6-tagged recombinant kinase domain of the human Cot1 (amino acids 30-397, purchased from Millipore, cat. no 14-703) expressed in insect cells (SF21) and purified by Ni-NTA affinity chromatography was used as kinase. As substrate for the kinase reaction the unactive C-terminally His6-tagged GST-MEK1 fusion protein (Millipore cat. no 14-420) was used.
For the assay 50 nl of a 100 fold concentrated solution of the test compound in DMSO was pipetted into a black low volume 384 well microtiter plate (Greiner Bio-One, Frickenhausen, Germany), 3 μl of a solution of 24 nM GST-MEK1 and 166.7 μM adenosine-tri-phosphate (ATP) in assay buffer [50 mM Tris/HCl pH 7.5, 10 mM MgCl2, 2 mM dithiothreitol, 0.01% (v/v) Igepal CA 630 (Sigma), 5 mM β-phospho-glycerol] were added and the mixture was incubated for 10 min at 22° C. to allow pre-binding of the test compounds to the GST-MEK1 before the start of the kinase reaction. Then the kinase reaction was started by the addition of 2 μl of a solution of Cot1 in assay buffer and the resulting mixture was incubated for a reaction time of 20 min at 22° C. The concentration of Cot1 in the assay was adjusted depending of the activity of the enzyme lot and was chosen appropriate to have the assay in the linear range, typical enzyme concentrations were in the range of about 2 ng/μl (final conc. in the 5 μl assay volume). The reaction was stopped by the addition of 5 μl of a solution of HTRF detection reagents (13 nM anti GST-XL665 [#61 GSTXLB, Fa. Cis Biointernational, Marcoule, France], 1 nM Eu-cryptate labelled anti-phospho-MEK 1/2 (Ser217/221) [#61P17KAZ, Fa. Cis Biointernational],) in an aqueous EDTA-solution (100 mM EDTA, 500 mM KF, 0.2% (w/v) bovine serum albumin in 100 mM HEPES/NaOH pH 7.5).
The resulting mixture was incubated 2 h at 22° C. to allow the binding of the phosphorylated GST-MEK1 to the anti-GST-XL665 and the Eu-cryptate labelled anti-phospho-MEK 1/2 antibody. Subsequently the amount of Ser217/Ser221-phosphorylated substrate was evaluated by measurement of the resonance is energy transfer from the Eu-Cryptate-labelled anti-phospho-MEK antibody to the anti-GST-XL665. Therefore, the fluorescence emissions at 620 nm and 665 nm after excitation at 350 nm was measured in a HTRF reader, e.g. a Rubystar (BMG Labtechnologies, Offenburg, Germany) or a Viewlux (Perkin-Elmer). The ratio of the emissions at 665 nm and at […] was taken as the measure for the amount of phosphorylated substrate. The data were normalised (enzyme reaction without inhibitor=0% inhibition, all other assay components but no enzyme=100% inhibition).

A375 cells = experiment: A375 Crystal Violet (CV) Proliferation Assay; format: cell-based; settings: A375 human melanoma cells, mutant BRAF V600E, crystal violet staining, 4 days
Procedure: Cell proliferation for A375 cells [human melanoma cell line, expressing mutant BRAF V600E] was measured by crystal violet (CV) staining: Cultivated human A375 cells were plated out in a density of 1500 cells/measurement point in 200 μl of growth medium (DMEM/HAMS F12 with 10% FBS and 2 mM Glutamine) in a 96-well multititer plate. After 24 hours, the cells from a plate (zero plate) were stained with crystal violet (see below), while the medium in the other plates was replaced by fresh culture medium (200 μl) to which the test substances had been added in various concentrations (0 μM, and in the range 0.3 nM-30 μM; the final concentration of the solvent dimethyl sulphoxide was 0.5%). The cells were incubated in the presence of the test substances for 4 days. The cell proliferation was determined by staining the cells with crystal violet: the cells were fixed by adding 20 μl/measurement point of an 11% glutaraldehyde solution at room temperature for 15 min. After the fixed cells had been washed three times with water, the plates were dried at room temperature. The cells were stained by adding 100 μl/measurement point of a 0.1% crystal violet solution (pH adjusted to pH 3 by adding acetic acid). After the stained cells had been washed three times with water, the plates were dried at room temperature. The dye was dissolved by adding 100 μl/measurement point of a 10% acetic acid solution, and the extinction was determined by photometry at a wavelength of 595 nm. The percentage change in cell growth was calculated by normalizing the measurements to the extinctions of the zero point plate (=0%) and the extinction of the untreated (0 μM) cells (=100%). The IC50 values were determined by means of a 4-parameter fit using the company's own software.

HCT116 cells = experiment: HCT116 Cell Titer Glo (CTG) Proliferation Assay; format: cell-based; settings: HCT116 human colorectal cells
Procedure: (§1) HCT116 cells [human colorectal cell line, expressing […]] were plated at a density of 3000 cells/well in 96 well black-clear bottom tissue culture plates (Costar 3603 black/clear bottom) in 100 μl/well DMEM medium (DMEM/Ham's F12) with 10% Fetal Bovine Serum (FBS) and stable Glutamine incubated at 37° C. Sister wells were plated in separate plate for time zero determination. All plates were incubated overnight at 37° C. Take down time zero plate: 100 μl/well CTG solution (Promega Cell Titer Glo solution) were added to time zero wells in sister plate; the plates were mixed for 2 min on orbital shaker to ensure cell lysis, incubated for 10 minutes, luminescence was read on VICTOR3 (Perkin Elmer). Twenty-four hours after cell seeding, test compounds were diluted in 50 μl medium and were added at a final concentration range from as high 10 μM to as low […] depending on the activities of the tested compounds in serial dilutions at a final DMSO concentration of 0.4%. Cells were incubated for 72 hours at 37° C. after addition of the test compound. Then, using a Promega Cell Titer Glo Luminescent® assay kit, 100 μl microliter lysis buffer containing of the enzyme luciferase and its substrate, luciferin mixture, were added to each well and incubated for 10 min at room temperature in the dark to stabilize luminescence signal. The samples were read on VICTOR3 (Perkin Elmer) using Luminescence protocol. The percentage change in cell growth was calculated by normalizing the measurements to the extinctions of the zero point plate (=0%) and the extinction of the untreated (0 μM) cells (=100%). The IC50 values were determined by means of a 4-parameter fit using the company's own software.

A549 cells = experiment: A549 Cell Titer Glo (CTG) Proliferation Assay; format: cell-based; settings: A549 human non small cell lung cancer cells, mutant K-Ras G12S
Procedure: as §1
A549 cells [human non small cell lung cancer cell line, expressing mutant K-Ras G12S] were seeded at a density of 2000 cells/well in 96 well black-clear bottom tissue culture plates (Costar 3603 black/clear bottom) in 100 μl/well DMEM medium (DMEM/Ham's F12) with 10% Fetal Bovine Serum (FBS) and stable Glutamine incubated at 37° C. Cell Titer Glo proliferation assays for A549 cells were performed with the same protocol as described afore for HCT116 cells.

T1 sequence (Q02750 whole entry): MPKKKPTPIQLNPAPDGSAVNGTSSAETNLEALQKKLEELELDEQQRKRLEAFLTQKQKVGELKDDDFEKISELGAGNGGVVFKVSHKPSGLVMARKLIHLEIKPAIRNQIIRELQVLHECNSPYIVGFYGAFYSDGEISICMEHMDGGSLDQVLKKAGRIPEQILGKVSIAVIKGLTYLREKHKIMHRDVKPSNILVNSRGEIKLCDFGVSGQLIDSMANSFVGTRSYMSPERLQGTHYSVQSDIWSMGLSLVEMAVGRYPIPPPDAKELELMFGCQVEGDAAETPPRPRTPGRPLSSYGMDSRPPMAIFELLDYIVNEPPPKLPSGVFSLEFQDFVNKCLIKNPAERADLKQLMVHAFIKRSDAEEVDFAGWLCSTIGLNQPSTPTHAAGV

IC50 (MEK1)	IC50 (A375 cells; Homo sapiens, A-375, 96 h)	IC50 (HCT116 cells; Homo sapiens, HCT-116, 72 h)	IC50 (A549 cells; Homo sapiens, A549, 72 h)	IC50 (A375 cells)	IC50 (HCT116 cells; 72 hours)	IC50 (A549 cells; 72 hours)	Structure (SMILES)
0.0211 µM	0.0255 µM	0.3 µM	0.7 µM				Cn1c(Nc2ccc(I)cc2F)c(NS(=O)(=O)C2(CC(O)CO)CC2)cc(F)c1=O (racemic) [Example 9, 1-(2,3-dihydroxypropyl)-N-{5-fluoro-2-[(2-fluoro-4-iodophenyl)amino]-1-methyl-6-oxo-1,6-dihydropyridin-3-yl}cyclopropanesulfonamide]
0.0121 µM							Cc1cc(NS(=O)(=O)C2CC2)c(Nc2ccc(I)cc2F)n(C)c1=O [Example 1, N-(2-(2-fluoro-4-iodophenylamino)-1,5-dimethyl-6-oxo-1,6-dihydropyridin-3-yl) cyclopropanesulfonamide]
0.00897 µM	0.015 µM						Cc1cc(NS(=O)(=O)C2(CCO)CC2)c(Nc2ccc(I)cc2F)n(C)c1=O [Example 3, N-(2-(2-fluoro-4-iodophenylamino)-1,5-dimethyl-6-oxo-1,6-dihydropyridin-3-yl)-1-(2-hydroxyethyl)cyclopropane-1-sulfonamide]
0.0104 µM				0.0178 µM	0.119 µM	0.481 µM	Cn1c(Nc2ccc(I)cc2F)c(NS(=O)(=O)C2(CC(O)CO)CC2)ccc1=O (single isomer, unassigned) [Example 6A, 1-(2,3-dihydroxypropyl)-N-{2-[(2-fluoro-4-iodophenyl)amino]-1-methyl-6-oxo-1,6-dihydropyridin-3-yl}cyclopropanesulfonamide]
0.0382 µM	0.0229 µM	0.36 µM	0.73 µM				Cn1c(Nc2ccc(I)cc2F)c(NS(=O)(=O)C2(CCO)CC2)cc(F)c1=O [Example 10, N-{5-fluoro-2-[(2-fluoro-4-iodophenyl)amino]-1-methyl-6-oxo-1,6-dihydropyridin-3-yl}-1-(2-hydroxyethyl)cyclopropanesulfonamide]
0.0099 µM	0.00294 µM	0.0901 µM	0.206 µM				Cn1c(Nc2ccc(I)cc2F)c(NS(=O)(=O)C2CC2)ccc1=O [Example 5, N-{2-[(2-fluoro-4-iodophenyl)amino]-1-methyl-6-oxo-1,6-dihydropyridin-3-yl}cyclopropanesulfonamide]
0.00836 µM	0.0047 µM	0.117 µM	0.254 µM				Cn1c(Nc2ccc(I)cc2F)c(NS(=O)(=O)C2(CCO)CC2)ccc1=O [Example 7, N-{2-[(2-fluoro-4-iodophenyl)amino]-1-methyl-6-oxo-1,6-dihydropyridin-3-yl}-1-(2-hydroxyethyl)cyclopropanesulfonamide]
0.0153 µM	0.0266 µM	0.59 µM	0.93 µM				Cn1c(Nc2ccc(I)cc2F)c(NS(=O)(=O)C2CC2)cc(F)c1=O [Example 8, N-{5-fluoro-2-[(2-fluoro-4-iodophenyl)amino]-1-methyl-6-oxo-1,6-dihydropyridin-3-yl}cyclopropanesulfonamide]
0.0115 µM	0.017 µM						Cc1cc(NS(=O)(=O)C2(CC(O)CO)CC2)c(Nc2ccc(I)cc2F)n(C)c1=O (racemic) [Example 2, 1-(2,3-dihydroxypropyl)-N-(2-(2-fluoro-4-iodophenylamino)-1,5-dimethyl-6-oxo-1,6-dihydropyridin-3-yl)cyclopropane-1-sulfonamide]
0.0166 µM				0.00774 µM	0.0545 µM	0.203 µM	Cn1c(Nc2ccc(I)cc2F)c(NS(=O)(=O)C2(CC(O)CO)CC2)ccc1=O (single isomer, unassigned) [Example 6B, 1-(2,3-dihydroxypropyl)-N-{2-[(2-fluoro-4-iodophenyl)amino]-1-methyl-6-oxo-1,6-dihydropyridin-3-yl}cyclopropanesulfonamide]
